The source of these data is patent US20100050299A1, “POST-HARVEST TREATMENT OF FRUITS WITH AN ANTIFUNGAL COMPOSITION” (priority 2006, published 2010).

Experiment [1] concerns Colletotridcum musae CBS19231. The experiment is described as follows: Treatment of bananas wounded with a cork borer and contaminated with mould spores, then dipped (Example 1). The settings on record: for Number of wounds showing mould growth/Total number of wounds: after 15 days at 21° C., dipped one minute, 1000 ppm natamycin, 240 mM potassium phosphite, 6 wounds (3 bananas with 2 wounds per banana); for wounds showing mould growth: after 15 days, out of 6 wounds. It is filed as in vivo. The protocol:
(§1) In this experiment organic bananas, Sabrosa® from the Dominican Republic, were used. The bananas were obtained from a local retailer in The Netherlands. The bananas were treated with spores of the phytopathogenic mould Colletotridcum musae CBS19231. The mould spores were obtained using well-known methods. The bananas were injured according to the method described by de Lapere de Bellaire and Dubois (1987). Bananas were wounded two times using a cork borer followed by contamination with approximately 2.5×10^4 mould spores of C. musae CBS19231 per wound. After incubation for 4 hours at room temperature, the bananas were dipped for one minute in one of the following compositions: a) no treatment (control 1), b) dipped in water (control 2), c) dipped in 1000 ppm natamycin, d) dipped in 240 mM of potassium phosphite, e) dipped in 1000 ppm of natamycin+240 mM of potassium phosphite. The experiment was executed in triplo; the natamycin and potassium phosphite solution were prepared using well-known methods. All compositions contained 0.1% (v/v) of the sticking agent Bond® (Loveland Industries Ltd.) and 0.14% (v/v) of the surfactant Zipper® (Asepta BV, The Netherlands). After this treatment the bananas were incubated in closed boxes at 21° C. at elevated humidity. Each day the bananas were judges visually on mould development.

Experiment [2] relates to Colletotridcum musae CBS19231. Description: Treatment of bananas with wounds made with a knife at the stalk (Example 2). The settings on record: for wounds/bananas with mould growth: after 15 days of incubation, 3 bananas, wound at the stalk; for Number of wounds showing mould growth/Total number of wounds: after 15 days, 3 wounds (3 bananas with 1 wound made at the stalk per banana). It is filed as in vivo. The protocol:
as §1
The experiment described in this example was done identically compared to the experiment described in Example 1, with the proviso that the wounds were made with a knife at the stalk of the bananas.

Experiment [3] concerns Colletotridcum musae CBS19231. Description: Treatment of freshly harvested banana clusters (Example 3). It is filed as in vivo. The settings on record: for bananas of the clusters on which moulds were observed: after 15 days of incubation, 12 bananas; for Number of bananas showing mould growth/Total number of bananas: after 15 days, freshly harvested, 12 bananas (3 clusters with 4 bananas per cluster). The protocol:
as §1
(§2) In this experiment freshly harvested bananas were used. A few days after harvesting and the de-latexing treatment to remove latex which is leaking from the wounds using well-known methods, the bananas were infected with mould spores and treated as described in Example 1. For each composition, 3 clusters comprising 4 bananas per cluster were used (experiment done in triplo).

Experiment [4] has as its system Colletotridcum musae CBS19231. Description: Treatment of freshly harvested banana clusters, new wounds made with a knife at the stalk (Example 4). The settings on record: for mould growth on banana clusters: after 15 days of incubation, 3 banana clusters; for Number of clusters showing severe mould growth/Total number of clusters: after 15 days, freshly harvested, 3 clusters, 2 wounds per cluster at the stalk. It is filed as in vivo. How it is done:
as §1, §2
(§3) The experiment described in this example was done identically compared to the experiment described in Example 3, with the proviso that bananas were harvested and thereafter new wounds were made with a knife at the stalk of the banana clusters (2 wounds were made per cluster).

The subject of experiment [5] is Colletotridcum musae CBS19231. The experiment is described as follows: Treatment of bananas, Neocryl and xanthan instead of Bond and Zipper (Example 5). The format is in vivo. The settings on record: after 15 days; for wounds showing mould growth: 12 wounds; for Number of wounds showing mould growth/Total number of wounds: Neocryl 21.3 g/l and xanthan 1.0 g/l, 12 wounds (6 bananas with 2 wounds per banana). How it is done:
as §1
The experiment described herein was executed as described in Example 1. However, in this experiment the sticking agent Bond® and the surfactant Zipper® were not used; instead Neocryl® (DSM) and xanthan were applied in a concentration of respectively 21.3 g/l and 1.0 g/l. In this experiment 12 wounds were made instead of 6 (2 wounds per banana; 6 bananas wounded).

The test system of experiment [6] is Colletotridcum musae CBS19231. The experiment is described as follows: Treatment of banana clusters wounded at the hand, Neocryl and xanthan instead of Bond and Zipper (Example 6). It is filed as in vivo. The settings on record: for wounds with mould growth: after 15 days of incubation, 6 wounds; for Number of wounds showing mould growth/Total number of wounds: after 15 days, Neocryl 21.3 g/l and xanthan 1.0 g/l, 6 wounds (3 clusters, 2 wounds per cluster at the hand). The protocol:
as §1, §2, §3
The experiment described herein was executed as described in Example 4, with the proviso that the sticking agent Bond® and the surfactant Zipper® were replaced by Neocryl® (DSM) and xanthan in a concentration of respectively 21.3 g/l and 1.0 g/l. Three clusters comprising 4 bananas each were wounded two times at the hand of the cluster resulting in a total number of wounds of 6.

The subject of a further experiment is moulds on bananas. The settings on record: in vivo; cited from earlier work.

For potassium phosphite [Composition d], in experiment [1], the “Number of wounds showing mould growth/Total number of wounds” value is 5/6 and the “wounds showing mould growth” value is recorded as 5 out of 6. In experiment [2], the “wounds/bananas with mould growth” value is on record as “all wounds” and the “Number of wounds showing mould growth/Total number of wounds” value was 3/3. In experiment [3], the “bananas of the clusters on which moulds were observed” value is listed as “all bananas” and the “Number of bananas showing mould growth/Total number of bananas” value was 12/12. Besides, in experiment [4], the “mould growth on banana clusters” value was 2 of the 3 and the “Number of clusters showing severe mould growth/Total number of clusters” value is on record as 2/3. Further, in experiment [5], the “wounds showing mould growth” value stood at 25% and the “Number of wounds showing mould growth/Total number of wounds” value is recorded as 3/12. In experiment [6], the “wounds with mould growth” value is reported as “all wounds” and the “Number of wounds showing mould growth/Total number of wounds” value is on record as 6/6.
Regarding `C[C@@H]1C/C=C/C=C/C=C/C=C/[C@H](O[C@@H]2O[C@H](C)[C@@H](O)[C@H](N)[C@@H]2O)C[C@@H]2O[C@](O)(C[C@@H](O)C[C@H]3O[C@@H]3/C=C/C(=O)O1)C[C@H](O)[C@H]2C(=O)O` [Composition c, natamycin], in experiment [1], the “Number of wounds showing mould growth/Total number of wounds” value is 6/6 and the “wounds showing mould growth” value amounted to 6. For the same compound, in experiment [2], the “wounds/bananas with mould growth” value is 2 of 3 and the “Number of wounds showing mould growth/Total number of wounds” value is reported as 2/3. Besides, in experiment [3], the “bananas of the clusters on which moulds were observed” value is “all bananas” and the “Number of bananas showing mould growth/Total number of bananas” value is reported as 12/12. Moreover, in experiment [4], the “mould growth on banana clusters” value was “in all of the natamycin treated banana clusters” and the “Number of clusters showing severe mould growth/Total number of clusters” value is on record as 3/3. Besides, in experiment [5], the “wounds showing mould growth” value was found to be 50% and the “Number of wounds showing mould growth/Total number of wounds” value is 6/12. In addition, in experiment [6], the “wounds with mould growth” value is given as “all wounds” and the “Number of wounds showing mould growth/Total number of wounds” value was 6/6. For the same compound, in the experiment on moulds on bananas, the “control of moulds on bananas” value is on record as “not sufficiently active” and the spectrum of action result was “broad spectrum action”.
